Assays:
PI-IBS rats = assay: EMG recording: visceral motor response to graded colorectal distension (CRD); type: in vivo, rat
Experimental: Sprague-Dawley male rats (Laboratory Animal Services Centre, The Chinese University of Hong Kong) aged 6 weeks with body weight around 220 g are used to develop PI-IBS model. Briefly, rats are fasted for 24 h, and deeply anesthetized with chloral hydrate (350 mg.kg^−1, i.p.). After induction of colitis by 2,4,6-trinitrobenzenesulfonic acid solution (TNBS, 5 mg/0.8 ml/rat, in 50% ethanol, 8 cm from anus) administration, the rats are allowed to recover for at least 4 weeks before use. The control rats are similarly administered with 0.8 ml saline instead of TNBS. Only the rats that have completely recovered from the initial inflammation and acquired visceral hypersensitivity are used as the PI-IBS rats.
6 groups of 12 rats are tested. Normal rats (Group 1) are treated with water. PI-IBS rats are randomly divided into 5 groups and orally treated with water (Group 2), Doxantrazole (mast cell stabilizer, 30 mg/kg/d, Group 3), and Quercetin (Group 4-6) at the dose of 5, 10, and 20 mg/kg/d, respectively. After 2 weeks daily drug administration, 5 rats in each group are used to measure pain threshold pressure by abdominal withdrawal reflex (AWR) test, and the remaining […] is used for electromyography (EMG) recording.
AWR test is performed as previously described in Al-Chaer E D, Kawasaki M, Pasricha P J. A new model of chronic visceral hypersensitivity in adult rats induced by colon irritation during postnatal development. Gastroenterology. 2000 November; 119(5):1276-85. Briefly, rats are lightly anesthetized with ether; a latex balloon is inserted into the descending colon. Rats are then allowed to recover for about 1 h. The tube of the balloon is connected via a Y-connector to a sphygmomanometer and colorectal distension is applied in increments of 5 mmHg until a visible contraction of the abdominal wall is observed by an investigator blinded to the treatment. The pain threshold pressure is defined as the intensity of colorectal distension (CRD) that elicited an observable AWR, i.e. a sudden and persistent abdominal muscle contraction with abdomen lift off the platform. The pain threshold pressure of all groups is recorded and repeated five times with intervals of at least 5 minutes for recovery. EMG recording are conducted as previously described in Tammpere A, Brusberg M, Axenborg J, Hirsch I, Larsson H, Lindstrom E. Evaluation of pseudo-affective responses to noxious colorectal distension in rats by manometric recordings. Pain. 2005 August; 116(3):220-6 and Li Z, Zhang X J, Xu H X, Sung J J, Bian Z X. Intracolonical administration of protease-activated receptor-2 agonists produced visceral hyperalgesia by up-regulating serotonin in the colon of rats. Eur J. Pharmacol. 2009 Mar. 15; 606(1-3):199-204. Firstly, a surgical operation is made to implant the electrodes into the left external abdominal oblique muscles 7 days before EMG recording. After the last drug administration, a flexible latex balloon is inserted into the rat descending colon, and the rats are allowed to accommodate for 1 h. CRD is initiated, and the EMG signal is amplified and filtered by Power Lab System. Graded colorectal distension (20, 40, 60, and 80 mmHg; 20 s duration; 2 min inter-stimulus interval) is carried out for total three cycles to each rat. The changes of area under the curve (AUC) are calculated using that during 20 s distension period over the 20 s baseline.

normal rats = assay: Colonic EC cell density in normal rats; type: in vivo, rat; settings: 10 mg/kg i.g., 14 days
Experimental: Tissue sections (5-μm thick) are deparaffinized and rehydrated for silver staining. Briefly, sections are incubated with 5% ammoniacal silver solution for 4 h at room temperature, then 2 h in 56° C. and subsequently 12 h at room temperature in a dark humidified chamber. After rinsing with water, 5% sodium hyposulfite is added and the tissue sections are incubated for 5 min at room temperature. The brown to black silver precipitate in the cytoplasm of EC cells represents as a positive reaction. A researcher blinded to treatment counted 5 random fields at 200× magnifications for each section, and the number of EC cells per mm^2 of mucosa is quantified using Image J NIH software.
To identify whether the effects of Quercerin in PI-IBS rats are specific, pain threshold pressure, colonic EC cell number and 5-HT content are further evaluated in normal rats treated with Quercetin. Briefly, Quercetin at the dose of 10 mg/kg is administered to normal rats orally for 14 days. After the final drug administration, pain threshold pressure, colonic EC cell density and 5-HT content are evaluated and the methods used here are as same as that shown in above experiments.

p-Cdc-2 = assay: Western blot of p-Cdc-2 in QGP-1 cells; type: cell-based, human; settings: QGP-1, 50-100 μM, 24 h
Experimental: (§1) After drug treatment, the cells are lysed and centrifuged to collect the protein extract After determination of protein content, the samples protein are denatured at 100° C. for 5 min Proteins are separated by 10-12% SDS-PAGE and transferred to PVDF membranes (Bio-Rad, CA). After blocking with 5% nonfat milk for 1 h at room temperature, the membranes are incubated overnight at 4° C. with primary antibodies (mouse anti-cyclin BE 1:500, Abcam; goat anti-p-Cdc2:1:500, Santa Cruz; mouse anti-p21: 1:500, BD Bioscience). After washing three times in TBST, the membranes where incubated with the appropriate secondary antibodies (1:2000, Invitrogen) for 1 h at room temperature. The immunoreaction is detected using ECL Western blotting kit (ECL, Amersham, UK). Bands are visualized on Biomax X-ray film, and optical density of each band is semi-quantified by software (Image J.NIH). In order to adjust for any variations in loading, all detected protein bands are normalized to β-actin levels.

p21 = assay: Western blot of p21 in QGP-1 cells; type: cell-based, human; settings: QGP-1, 50-100 nM (so in the source), 24 h
Experimental: as §1

QGP-1 cells = assay: Apoptosis by DAPI staining, fluorescence microscopy; type: cell-based, human; settings: QGP-1, 25~100 μM, 24 h
Experimental: Cells are seeded on coverslips in 24-well plate at the density of 100,000 cells per well and cultured overnight. After exposure to DMSO (control) or different concentration of Quercetin for 24 h, cells are washed three times and fixed with 4% paraformaldehyde for 20 min at room temperature. After washing in PBS, cells are permeabilized in 0.2% tritonX-100 for 10 min and stained with DAPI (20 μg/ml) for 10 min at room temperature in darkness. Slides are examined with a laser scanning microscope (Olympus Fluoview FV1000) 40× magnification. Three hundred cells are counted per slide randomly as previously reported in Ramage L, Jones A C, Whelan C J. Induction of apoptosis with tobacco smoke and related products in A549 lung epithelial cells in vitro. J Inflamm (Lond). 2006; 3:3. Apoptosis cells condense or fragment nuclear chromatin with or without apoptotic bodies, while normal cells have typical morphology with smooth nuclear and membrane.

## O=c1c(O)c(-c2ccc(O)c(O)c2)oc2cc(O)cc(O)c12 [Quercetin, 2-(3,4-dihydroxyphenyl)-3,5,7-trihydroxy-4H-chromen-4-one]
PI-IBS rats; 5 mg/kg i.g., 20 mmHg
  AUC value under graded distension pressures (EMG): 161.22 ± 41.53
PI-IBS rats; 5 mg/kg i.g., 40 mmHg
  AUC value under graded distension pressures (EMG): 463.55 ± 12.42
PI-IBS rats; 5 mg/kg i.g., 60 mmHg
  AUC value under graded distension pressures (EMG): 586.42 ± 56.68
PI-IBS rats; 5 mg/kg i.g., 80 mmHg
  AUC value under graded distension pressures (EMG): 906.84 ± 41.08
PI-IBS rats; 10 mg/kg i.g., 20 mmHg
  AUC value under graded distension pressures (EMG): 124.61 ± 67.68
PI-IBS rats; 10 mg/kg i.g., 40 mmHg
  AUC value under graded distension pressures (EMG): 386.85 ± 65.68
PI-IBS rats; 10 mg/kg i.g., 60 mmHg
  AUC value under graded distension pressures (EMG): 530.98 ± 21.08
PI-IBS rats; 10 mg/kg i.g., 80 mmHg
  AUC value under graded distension pressures (EMG): 842.34 ± 62.92
PI-IBS rats; 20 mg/kg i.g., 20 mmHg
  AUC value under graded distension pressures (EMG): 88.28 ± 43.43
PI-IBS rats; 20 mg/kg i.g., 40 mmHg
  AUC value under graded distension pressures (EMG): 319.78 ± 118.03
PI-IBS rats; 20 mg/kg i.g., 60 mmHg
  AUC value under graded distension pressures (EMG): 470.73 ± 173.52
PI-IBS rats; 20 mg/kg i.g., 80 mmHg
  AUC value under graded distension pressures (EMG): 725.28 ± 192.44
Normal rats
  EC cell density: 91 ± 10 Number/mm^2
p-Cdc-2
  Protein level of p-Cdc-2: significantly decrease
p21
  Protein level of p21: significantly increased
QGP-1 cells
  Apoptosis rate: concentration-dependently increases
